Measured values reported in ChEMBL document CHEMBL3046004, “Esterase-mediated resistance to pyrethroids in field populations of Helicoverpa armigera (Lepidoptera: Noctuidae) from Central Africa” (2009).

Experiments:
Format in all cases: functional
Helicoverpa armigera [1] = assay: Resistance factor, ratio of LD50 for fourth-instar larval stage of Helicoverpa armigera field strain Gaschiga isolated from tomato plant to LD50 for fourth-instar larval stage of pyrethroid-susceptible Helicoverpa armigera laboratory strain BK-77
Helicoverpa armigera [2] = assay: Resistance factor, ratio of LD50 for fourth-instar larval stage of Helicoverpa armigera field strain Pitoa isolated from maize plant to LD50 for fourth-instar larval stage of pyrethroid-susceptible Helicoverpa armigera laboratory strain BK-77
Helicoverpa armigera [3] = assay: Insecticidal activity against fourth-instar larval stage of Helicoverpa armigera field strain Ngong isolated from cotton plant assessed as mortality applied topically onto thorax measured after 48 hr
Helicoverpa armigera [4] = assay: Resistance factor, ratio of LD50 for fourth-instar larval stage of pyrethroid-resistance Helicoverpa armigera laboratory strain GS-RR06 to LD50 for fourth-instar larval stage of pyrethroid-susceptible Helicoverpa armigera laboratory strain BK-77
Helicoverpa armigera [5] = assay: Insecticidal activity against fourth-instar larval stage of Helicoverpa armigera field strain Gaschiga isolated from tomato plant assessed as mortality applied topically onto thorax measured after 48 hr
Helicoverpa armigera [6] = assay: Insecticidal activity against fourth-instar larval stage of Helicoverpa armigera field strain Pitoa isolated from tomato plant assessed as mortality applied topically onto thorax measured after 48 hr
Helicoverpa armigera [7] = assay: Insecticidal activity against fourth-instar larval stage of pyrethroid-susceptible Helicoverpa armigera laboratory strain BK-77 assessed as mortality applied topically onto thorax measured after 48 hr
Helicoverpa armigera [8] = assay: Resistance factor, ratio of LD50 for fourth-instar larval stage of Helicoverpa armigera field strain Pitoa isolated from tomato plant to LD50 for fourth-instar larval stage of pyrethroid-susceptible Helicoverpa armigera laboratory strain BK-77
Helicoverpa armigera [9] = assay: Insecticidal activity against fourth-instar larval stage of pyrethroid-resistance Helicoverpa armigera laboratory strain GS-RR06 assessed as mortality applied topically onto thorax measured after 48 hr
Helicoverpa armigera [10] = assay: Resistance factor, ratio of LD50 for fourth-instar larval stage of Helicoverpa armigera field strain Ngong to LD50 for fourth-instar larval stage of pyrethroid-susceptible Helicoverpa armigera laboratory strain BK-77
Helicoverpa armigera [11] = assay: Insecticidal activity against fourth-instar larval stage of Helicoverpa armigera field strain Pitoa isolated from maize plant assessed as mortality applied topically onto thorax measured after 48 hr
Helicoverpa armigera [12] = assay: Insecticidal activity against fourth-instar larval stage of Helicoverpa armigera field strain Tchollire isolated from cotton plant assessed as mortality applied topically onto thorax measured after 48 hr
Helicoverpa armigera [13] = assay: Resistance factor, ratio of LD50 for fourth-instar larval stage of Helicoverpa armigera field strain Tchollire to LD50 for fourth-instar larval stage of pyrethroid-susceptible Helicoverpa armigera laboratory strain BK-77

| Compound | Ratio (Helicoverpa armigera [1]) | Ratio (Helicoverpa armigera [2]) | LD50 (Helicoverpa armigera [3]) [microgAi/g] | Ratio (Helicoverpa armigera [4]) | LD50 (Helicoverpa armigera [5]) [microgAi/g] | LD50 (Helicoverpa armigera [6]) [microgAi/g] | LD50 (Helicoverpa armigera [7]) [microgAi/g] | Ratio (Helicoverpa armigera [8]) | LD50 (Helicoverpa armigera [9]) [microgAi/g] | Ratio (Helicoverpa armigera [10]) | LD50 (Helicoverpa armigera [11]) [microgAi/g] | LD50 (Helicoverpa armigera [12]) [microgAi/g] | Ratio (Helicoverpa armigera [13]) |
| --- | --- | --- | --- | --- | --- | --- | --- | --- | --- | --- | --- | --- | --- |
| O=S1OCC2C(CO1)C1(Cl)C(Cl)=C(Cl)C2(Cl)C1(Cl)Cl (stereo not given) [ENDOSULFAN] | 0.7 | 1 | 34 | 0.7 | 25.9 | 36.2 | 37.6 | 1 | 27.5 | 0.1 | 37.9 |  |  |
| CCOc1ccc(C(C)(C)COCc2cccc(Oc3ccccc3)c2)cc1 [ETOFENPROX] | 4 | 5 | 136.6 | 2 | 229.3 | 531.4 | 55.5 | 10 | 135.7 | 2 | 285.3 | 152.2 | 3 |
| CCCSP(=O)(OCC)Oc1ccc(Br)cc1Cl (stereo not given) [PROFENOFOS] | 5.3 | 4.2 | 18.5 | 3.9 | 24.3 | 36.2 | 4.6 | 7.9 | 17.7 | 4 | 19.5 |  |  |
